Source: patent publication US20060160906A1, “Polyamine analogs as therapeutic agents for ocular diseases” (priority 2004, published 2006)
“Also recorded” adds a separate entry of the source.

Columns and labels:
[1] = test system: choroidal neovascularization (CNV) at Bruch's membrane rupture sites; experiment: Mouse model of laser-induced choroidal neovascularization (rupture of Bruch's membrane), CNV area on choroidal flat mounts; assay type: in vivo, C57BL/6J mice
[2] = test system: retinal structure; experiment: Retinal structure in hematoxylin and eosin stained retinal sections; assay type: in vivo, mice
Experimental: The remaining 10 mice were given an intravitreous injection of 20 μg of CGC-11144 in one eye and vehicle in the fellow eye on days 7 and 10 and then CNV area was measured at each rupture site at 14 days after laser (n=30 in each group). […] After 3 days, ERGs were performed as described in Methods. […] (In FIGS. 3C-3F, retinal sections were stained with hematoxylin and eosin; FIG. 3C and FIG. 3E, 40×; FIG. 3D and FIG. 3F, 100×.)

[3] = test system: subretinal neovascularization; experiment: Rhodopsin/VEGF transgenic mice, subretinal neovascularization; assay type: in vivo, rhodopsin/VEGF transgenic mice (V6 mice); conditions: periocular injection at P7, measured P21; 100 μg CGC-11144, 1 mg CGC-11047, 750 μg CGC-11093
From the text: Transgenic mice (V6 mice) in which the rhodopsin promoter drives expression of VEGF165 in photoreceptors have onset of VEGF expression at post-natal day 7 (P7) and soon after begin to develop neovascularization originating from the deep capillary bed that grows through the photoreceptor layer into the subretinal space. (Okamoto N et al., Amer. J. Pathol. 151: 281-91 (1997); Tobe T et al., Invest. Ophthalmol. Vis. Sci. 39: 180-188 (1998)). Hemizygous transgene positive mice were given a periocular injection of 100 μg of CGC-11144 (n=3), 1 mg of CGC-11047 (n=3), 750 μg of CGC-11093 (n=3) or vehicle (n=7) at P7. At post-natal day 21 (P21), mice were euthanized and the amount of subretinal neovascularization was quantified as previously described (Tobe, ibid.). Briefly, mice were anesthetized, perfused with fluorescein-labeled dextran, and the number of neovascular lesions on the outer surface of the retina and their total area were measured on retinal flat mounts by image analysis as described in Example 1.

In the case of `CCNCCCCNCCCCNCCCCNCCCCNC/C=C/CNCCCCNCCCCNCCCCNCCCCNCC.Cl.Cl.Cl.Cl.Cl.Cl.Cl.Cl.Cl.Cl` [CGC-11144], the “area of CNV vs day 7 baseline and vehicle fellow eyes (regression)” value ([1]; daily periocular injections days 7 to 14, 200 μg CGC-11144, 100 μg DFMO, or both) was “significant reduction in CNV area; also recorded: significantly less”, the “area of CNV vs controls (no injection or vehicle-injected fellow eye)” value ([1]; intraocular 20 μg on days 0 and 7 after rupture) was “significantly less CNV than corresponding controls” and the “decrease in area of CNV compared to vehicle-treated or untreated eyes” value ([1]; intravitreous 20 μg on days 0 and 7 after rupture, measured day 14) was “approximately 40%”. The “area of established CNV vs vehicle fellow eyes and vs 7 day baseline (regression)” value ([1]; intravitreous 20 μg on days 7 and 10, measured day 14) was “significantly smaller in area”, the “size (area) of CNV lesions vs vehicle” value ([1]; ip 10 mg/kg twice a week, 2 weeks after rupture of Bruch's membrane, 10 mg/kg) was “statistically significant reductions in the size of CNV lesions; also recorded: small, but significant reductions in CNV” and the “size (area) of CNV lesions vs vehicle” value ([1]; ip 20 mg/kg twice a week, surviving mice, 20 mg/kg) was “small statistically significant reductions in CNV lesion size; also recorded: small, but significant reductions in CNV”. The “decrease in CNV area compared to vehicle-treated eyes” value ([1]; periocular 200 μg 3 times a week, day 14) was 40%, the “area of established CNV vs vehicle fellow eyes and 7 day baseline (regression)” value ([1]; periocular 200 μg on days 7, 10 and 13, measured day 14) was “significant decrease in area of CNV; also recorded: significantly smaller” and the “area of CNV vs controls (no injection or vehicle-injected fellow eye)” value ([1]; periocular 200 μg three times a week, day 14) was “significantly less CNV than corresponding controls”. The “amount of CNV on day 14 vs vehicle (suppression)” value ([1]; single periocular injection at time of rupture, 200 μg CGC-11144, 2 mg CGC-11047, 1.5 mg CGC-11093) was “significantly reduced the amount of CNV”, the “amount of CNV vs vehicle (duration of effect)” value ([1]; single periocular injection one week prior to rupture, 200 μg CGC-11144, 2 mg CGC-11047, 1.5 mg CGC-11093) was “significant reduction of the amount of CNV” and the “amount of CNV vs vehicle (duration of effect)” value ([1]; single periocular injection two weeks prior to rupture, 200 μg CGC-11144, 2 mg CGC-11047, 1.5 mg CGC-11093) was “no significant effect”. For the same compound, the appearance of retinas ([2]; daily periocular 200 μg for 14 days) was “normal-appearing retinas”, the “retinal structure / morphology” value ([2]; intravitreous 20 μg) was “markedly disrupted; also recorded: substantial disruption of the morphology of the retina” and the “subretinal neovascularization vs vehicle” value [3] was “significantly less subretinal neovascularization”.
